The values that follow come from patent USRE47493E1, “Substituted bicyclic dihydropyrimidinones and their use as inhibitors of neutrophil elastase activity” (Boehringer Ingelheim International GmbH, priority 2014, dated 2019).

One data set relates to Caco-2 cell monolayers. Kind of data set: Assay for Determination of Drug Transport Across Human CACO-2 Cells. The class given is in vitro ADME. As to conditions: for Efflux ratio: Caco-2, PEBA/PEAB; for PEAB: Caco-2, apical-to-basal; for PEAB / PEBA: pH 7.2, 37° C.; for PEBA: Caco-2, basal-to-apical. The source says:
Assay for Determination of Drug Transport Across Human CACO-2 Cells
The assay provides information on the potential of a compound to pass the cell membrane, on the extent of oral absorption as well as on whether the compound is actively transported by uptake and/or efflux transporters. For the measurement of permeability across polarized, confluent human cancer colon carcinoma cells 2 (Caco-2) cell monolayers grown on permeable filter supports are used as the in vitro absorption model. Apparent permeability coefficients (PE) of the compounds across the Caco-2 monolayers are measured (pH 7.2, 37° C.) in apical-to-basal (AB) (absorptive) and basal-to-apical (BA) (secretory) transport direction. AB permeability (PEAB) represents drug absorption from the intestine into the blood and BA permeability (PEBA) drug secretion from the blood back into the intestine via both passive permeability as well as active transport mechanisms mediated by efflux and uptake transporters that are expressed on the Caco-2 cells. The compounds are assigned to permeability/absorption classes by comparison of the AB permeabilities with the AB permeabilities of reference compounds with known in vitro permeability and oral absorption in the human. Identical or similar permeabilities in both transport directions indicate passive permeation, vectorial permeability points to additional active transport mechanisms. […] Active transport is concentration-dependently saturable.
Caco-2 cells (1−2*10^5 cells/cm^2 area) are seeded on filter inserts (Costar transwell polycarbonate or PET filters, […] pore size) and cultured (DMEM) for 10 to 25 days. Compounds are dissolved in appropriate solvent (like DMSO, 1-20 mM stock solutions). Stock solutions are diluted with HTP-4 buffer (128.13 mM NaCl, 5.36 mM KCl, 1 mM MgSO4, 1.8 mM CaCl2, 4.17 mM NaHCO3, 1.19 mM Na2HPO4×7H2O, 0.41 mM NaH2PO4×H2O, 15 mM HEPES, 20 mM glucose, pH 7.2) to prepare the transport solutions (typically […] compound, final DMSO <=0.5%). The transport solution (TL) is applied to the apical or basolateral donor side for measuring A-B or B-A permeability (3 filter replicates), respectively. The receiver side contains HTP-4 buffer supplemented with 2% BSA. Samples are collected at the start and end of experiment from the donor and at various time intervals for up to 2 hours also from the receiver side for concentration measurement by LC-MS/MS or scintillation counting. Sampled receiver volumes are is replaced with fresh receiver solution.
The apparent permeability coefficients (PEAB and PEBA) and efflux ratios (PEBA/PEAB) of selected compounds in the Caco-2 drug transport assay described above are listed in Table 17.

For data set [1], the target named is Human neutrophil elastase (Homo sapiens (Human), UniProt P08246). Description: Human Neutrophil Elastase Assay. The class given is biochemical. As to conditions: human neutrophil elastase, substrate MeOSuc-Ala-Ala-Pro-Val-AMC, pH 7.5; read-out: IC50. Here is the method: Human Neutrophil Elastase Assay
Sequence of Human neutrophil elastase (P08246 30-267): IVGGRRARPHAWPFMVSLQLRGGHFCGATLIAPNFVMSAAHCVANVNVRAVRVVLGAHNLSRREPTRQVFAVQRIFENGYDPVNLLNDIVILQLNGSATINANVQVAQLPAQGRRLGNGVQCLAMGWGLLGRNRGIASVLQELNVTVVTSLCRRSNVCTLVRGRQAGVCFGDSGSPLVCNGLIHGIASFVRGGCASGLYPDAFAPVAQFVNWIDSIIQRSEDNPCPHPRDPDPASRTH
Materials: Human neutrophil elastase was purchased from Calbiochem (Cat.No.: 324681) and the elastase substrate MeOSuc-Ala-Ala-Pro-Val-AMC from Bachem (Cat.No.: I-1270). All other materials were of the highest grade commercially available.
The following buffers were used: Compound buffer: 100 mM Tris, 500 mM NaCl, adjusted to pH 7.5; Assay buffer: 100 mM Tris, 500 mM NaCl, adjusted to pH 7.5, containing 0.01% BSA.
Assay conditions: Test compounds were prediluted in DMSO and subsequently in compound buffer (5% DMSO final). 5 μL of these compound dilutions were mixed with 10 μl Neutrophil elastase (9 ng/ml in assay buffer) in a black 384 well OptiPlate (Perkin Elmer, Cat No.: 6007270) and incubated for 15 min at room temperature. Subsequently 10 μL substrate solution in assay buffer were added (250 nM final concentration) and the plates were incubated for 60 min at room temperature. After inactivation of the enzyme, fluorescence intensities were measured at 380 nm excitation and 460 nm emission wavelengths.
Each plate contains wells with a high value control (DMSO+enzyme+substrate) and wells with a low value control (DMSO+inactivated enzyme+substrate). IC50 values were estimated using a sigmoidal concentration response curve with variable slope. Means of low values were taken as 0%, means of high values as 100%.

Data set [2] in a line: Assay for Determination of Aqueous Solubility. The class given is physicochemical. The settings on record: McIlvaine buffer pH 6.8, 2.5% DMSO, 24 h. Here is the method:
Assay for Determination of Aqueous Solubility
The aqueous solubility of a compound is determined by comparing the amount dissolved in aqueous buffer (containing 2.5% DMSO) to the amount dissolved in an acetonitrile/water (1/1) solution. Starting from a 10 mM DMSO stock solution, aliquots are diluted with acetonitrile/water (1/1) and Mcllvaine buffer pH 6.8, respectively. After 24 h of shaking, the solutions or suspensions are filtered and analyzed by LC-UV. The amount dissolved in buffer is compared to the amount dissolved in the acetonitrile/water (1/1) solution. Solubility is measured from 0.001 to 0.125 mg/ml at a DMSO concentration of 2.5%. If more than 90% of the compound is dissolved in buffer, the value is marked with “>”.

The target in data set [3] is neutrophil elastase in human plasma (Homo sapiens (Human), UniProt P08246). Kind of data set: Assay for the Determination of Neutrophil Elastase Inhibitory Activity in Human Plasma. The class given is biochemical. The settings on record: neutrophil elastase enriched human plasma (zymosan-stimulated blood). On the procedure:
Assay for the Determination of Neutrophil Elastase Inhibitory Activity in Human Plasma
Citrated blood from human healthy donors is mixed with zymosan suspension and incubated at room temperature. This leads to the stimulation of neutrophils and the release of neutrophil elastase into the plasma. The stimulated blood is centrifuged to generate the neutrophil elastase enriched plasma.
Preparation of Zymosan Working Solution:
• single 45 ml blood sample is taken into a 50 ml tube containing citrate (3.13%, 5 mL) and the tube is gently inverted 4 times. • Immediately after blood sampling, zymosan working solution (5 mL) is added. • After the addition of zymosan working solution, the tubes are capped, mixed gently and incubated at 22° C. for 15 min on a shaker at 20 rpm. • Make 10 ml aliquots after the incubation time. • Centrifuge the 15 ml tubes at 800 g for […] at 4° C. in a Jouan centrifuge. • Harvest the plasma and make 1-5 ml aliquots. • Store the plasma at −80° C.
Various concentrations of the neutrophil elastase inhibitor are incubated with plasma. Subsequently, the enzyme activity is measured using the fluorogenic substrate MeOSuc-Ala-Ala-Pro-Val-AMC (Bachem Cat. No. 1-1270, substrate concentration: 250 μM, pH 7.5, 25 mM TRIS buffer, 250 mM NaCl) in analogous fashion as described for the human neutrophil assay. A dose response curve is generated to calculate the EC50 of the inhibitor. The analysis of the data is performed by the calculation of the percentage of fluorescence in the presence of the test compound compared to the fluorescence of the vehicle control after subtracting the background fluorescence: An inhibitor of the neutrophil elastase enzyme will give values between 100% control (no inhibition) and 0% control (complete inhibition). The human plasma shift of selected compounds can be calculated using the following equation: Human plasma shift=(EC50 in human plasma assay)/(IC50 in human neutrophil elastase assay) The EC50 values of selected compounds in the human plasma assay described above are listed in Table 14.

A short description of data set [4]: Assay for the Determination of Metabolic Stability with Human Liver Microsomes. The class given is in vitro ADME. The settings on record: pooled human liver microsomes, 37° C., NADPH. Here is the method:
Assay for the Determination of Metabolic Stability with Human Liver Microsomes
The metabolic degradation of the test compound is assayed at 37° C. with pooled human liver microsomes. The final incubation volume of […] per time point contains TRIS buffer pH 7.6 (0.1 M), magnesium chloride (5 mM), microsomal protein (1 mg/ml) and the test compound at a final concentration of […]. Following a short preincubation period at 37° C., the reactions are initiated by addition of beta-nicotinamide adenine dinucleotide phosphate, reduced form (NADPH, 1 mM) and terminated by transfering an aliquot into acetonitrile after different time points. Additionally, the NADPH-independent degradation is monitored in incubations without NADPH, terminated at the last time point. The rol remaining test compound after NADPH independent incubation is reflected by the parameter c(control) (metabolic stability). The quenched incubations are pelleted by centrifugation (10′000 g, 5 min) An aliquot of the supernatant is assayed by LC-MS/MS for the amount of parent compound.
The half-life (t1/2 INVITRO) is determined by the slope of the semilogarithmic plot of the concentration-time profile. The intrinsic clearance (CL_[…]) is calculated by considering the amount of protein in the incubation: CL_[…][μl/min/mg protein]=(ln 2/(half-life [min]*protein content [mg/ml]))*1′000.
The half-life (t1/2 INVITRO) values of selected compounds in the metabolic stability assay described above are listed in Table 15.

Data set [5] in a line: Assay for the Determination of Metabolic Stability with Human Hepatocytes. It counts as in vitro ADME. As to conditions: scaled with well stirred model. Here is the method: Assay for the Determination of Metabolic Stability with Human Hepatocytes
The metabolic degradation of the test compound is assayed in a human hepatocyte suspension. Human hepatocytes (typically cryopreserved) are incubated in an appropriate buffer system (e.g. Dulbecco's modified eagle medium plus 3.5 μg glucagon/500 mL, 2.5 mg insulin/500 mL and 3.75 mg/500 mL hydrocortison) containing 5% species serum. Following a (typically) […] preincubation in an incubator (37° C., 10% CO2), 5 μl of test compound solution (80 μM; from 2 mM stock solution in DMSO diluted 1:25 with medium) are added into 395 μl hepatocyte suspension (cell density in the range 0.25-5*10^6 cells/mL, typically 1*10^6 cells/mL; final concentration of test compound 1 μM, final DMSO concentration […]). The cells are incubated for six hours (incubator, orbital shaker) and samples (25 μl) are taken at 0, 0.5, 1, 2, 4 and 6 hours. Samples are transferred into acetonitrile and pelleted by centrifugation (5 min). The supernatant is transferred to a new 96-deepwell plate, evaporated under nitrogen and resuspended. The decline of parent compound is analyzed by LC-MS/MS.
The intrinsic clearance CL_[…] is calculated as follows: CL_[…]=Dose/AUC=(C0/CD)/(AUD+clast/k)*1′000/60 (C0: initial concentration in the incubation [μM], CD: cell density of vital cells [10^6 cells/mL], AUD: area under the data [μM*h], clast: concentration of last data point [μM], k: slope of the regression line for parent decline [h^−1])
The calculated in vitro hepatic intrinsic clearance can be scaled up to the intrinsic in vivo hepatic clearance and used to predict hepatic in vivo blood clearance (CL) by the use of a is liver model (well stirred model): CL_[…]_INVIVO [ml/min/kg]=(CL_[…] [μL/min/10^6 cells]* hepatocellularity[10^6 cells/g liver]*liver factor[g/kg bodyweight])/1′000 CL[ml/min/kg]=CL_[…]_INVIVO [ml/min/kg]*hepatic blood flow [ml/min/kg]/(CL_[…]_INVIVO [ml/min/kg]+hepatic blood flow [ml/min/kg]) Qh[%]=CL[ml/min/kg]/hepatic blood flow[ml/min/kg]) (Hepatocellularity, human: 120*10^6 cells/g liver; lver factor, human: 25.7 g/kg bodyweight; blood flow, human: 21 ml/(min*kg))
The predicted human hepatic in vivo blood clearance (CL) of selected compounds in the metabolic stability assay described above are listed in Table 16.

Sequence of neutrophil elastase in human plasma (P08246 30-267): as above

With `CCNC(=O)N1C(=O)N(c2cccc(C(F)(F)F)c2)C2=C(C(=O)CCC2)C1c1ccc(C#N)cc1S(C)(=O)=O` (stereo not shown) [Example 47.1], in the data set on Caco-2 cell monolayers, the Efflux ratio came out at 5.4, the PEAB was found to be 150 nm/s and the PEBA was 810 nm/s. Also, the concentration for half-maximal inhibition (IC50) in data set [1] was below 1 nM. For the same compound, the Aqueous solubility in data set [2] was 0.073 mg/mL. The compound also gave an EC50 in data set [3] of 1 nM.
Turning to `CS(=O)(=O)c1cc(C#N)ccc1C1C2=C(CCCC2=O)N(c2cccc(C(F)(F)F)c2)C(=O)N1CCCO` (stereo not shown) [Example 58.2], the IC50 in data set [1] was 1.2 nM. In data set [4], the “t1/2 INVITRO” value is above 2.17 h. The Aqueous solubility in data set [2] worked out at 0.056 mg/mL. The compound also showed an EC50 in data set [3] of 3 nM. Besides, the “CL (predicted human hepatic in vivo blood clearance)” value in data set [5] is 0.18 L/h/kg.
In the case of `CS(=O)(=O)c1cc(C#N)ccc1[C@@H]1C2=C(CCCC2=O)N(c2cccc(C(F)(F)F)c2)C(=O)N1C(=O)NCC(F)F` [Example 75.7], in the data set on Caco-2 cell monolayers, the Efflux ratio came out at 10.8, the PEAB was found to be 84 nm/s and the PEBA was 906 nm/s. Besides, the “t1/2 INVITRO” value in data set [4] is above 2.17 h. The same compound displayed an Aqueous solubility in data set [2] of 0.905 mg/mL. Besides, in data set [5], the “CL (predicted human hepatic in vivo blood clearance)” value is 0 L/h/kg.
For the compound `CS(=O)(=O)c1cc(C#N)ccc1[C@@H]1C2=C(CCCC2=O)N(c2cccc(C(F)(F)F)c2)C(=O)N1C(=O)NC1CCOCC1` [Example 75.16], in data set [1], the IC50 is below 1 nM. Further, in data set [4], the “t1/2 INVITRO” value was above 2.17 h. Further, in data set [2], the Aqueous solubility turned out to be 0.066 mg/mL. In data set [3], this compound had an EC50 of 1 nM. In addition, the “CL (predicted human hepatic in vivo blood clearance)” value in data set [5] is 0 L/h/kg.
